# According to patent publication US8030500B2, “Substituted isoindoles for the treatment and/or prevention of Aβ- related pathologies” (AstraZeneca AB, priority 2008, dated 2011):
# Structures can show the parent of a compound that is named as a salt.
# Target: T1, human β-Secretase (Homo sapiens, UniProt P56817)
# T1 construct: soluble part of the human β-Secretase (AA 1-AA 460); Fc domain of IgG1; made in house
# Assay: TR-FRET assay (β-secretase enzyme, sBACE-Fc)
# Type: biochemical
# Settings: soluble human β-secretase (sBACE-Fc), substrate (Europium)[…](Qsy7) 100 nM, pH4.5; read-out: IC50 in TR-FRET assay
# Description: The β-secretase enzyme used in the TR-FRET is prepared as follows:
# The cDNA for the soluble part of the human β-Secretase (AA 1-AA 460) was cloned using the ASP2-Fc10-1-IRES-GFP-neoK mammalian expression vector. The gene was fused to the Fc domain of IgG1 (affinity tag) and stably cloned into HEK 293 cells.
# The robotic systems Biomek FX and Velocity 11 were used for all liquid handling and the enzyme and substrate solutions were kept on ice until they were placed in the robotic system. Enzyme (9 μl) was added to the plate then 1 μl of compound in dimethylsulphoxide was added, mixed and pre-incubated for 10 minutes. Substrate (10 μl) was then added, mixed and the reaction proceeded for 15 minutes at room temperature. The reaction was stopped with the addition of Stop solution (7 μl, NaAcetate, pH 9). […] The dimethylsulphoxide control, instead of test compound, defined the 100% activity level and 0% activity was defined by wells lacking enzyme (replaced with reaction buffer).
# T1 sequence (P56817 22-460): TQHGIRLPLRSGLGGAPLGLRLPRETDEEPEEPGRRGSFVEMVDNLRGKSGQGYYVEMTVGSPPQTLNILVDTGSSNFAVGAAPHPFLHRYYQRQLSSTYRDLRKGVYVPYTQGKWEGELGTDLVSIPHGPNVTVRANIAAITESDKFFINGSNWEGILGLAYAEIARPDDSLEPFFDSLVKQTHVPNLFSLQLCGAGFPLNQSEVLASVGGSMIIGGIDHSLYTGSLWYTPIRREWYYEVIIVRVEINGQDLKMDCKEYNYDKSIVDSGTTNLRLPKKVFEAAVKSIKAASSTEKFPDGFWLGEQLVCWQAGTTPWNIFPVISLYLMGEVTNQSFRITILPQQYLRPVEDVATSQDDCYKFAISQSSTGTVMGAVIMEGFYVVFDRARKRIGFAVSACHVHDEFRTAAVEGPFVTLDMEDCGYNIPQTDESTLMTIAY
row,SMILES,IC50 [nM]
1,"NC1=NC(c2ccnc(C(F)(F)F)c2)(c2cc(-c3cncnc3)ccc2F)c2cccc(F)c21 (stereo not shown) [Example 6, 4-Fluoro-1-(2-fluoro-5-(pyrimidin-5-yl)phenyl)-1-(2-(trifluoromethyl)pyridin-4-yl)-1H-isoindol-3-amine]",1100
2,"COc1c(C)cc(C2(c3cccc(-c4cncnc4)c3)N=C(N)c3c(F)cccc32)cc1CC#N (stereo not shown) [Example 47, 2-(5-(3-Amino-4-fluoro-1-(3-(pyrimidin-5-yl)phenyl)-1H-isoindol-1-yl)-2-methoxy-3-methylphenyl) acetonitrile]",83
3,"COc1cccc(-c2cc(C3(c4cncnc4)N=C(N)c4c(F)cccc43)ccc2F)c1F (stereo not shown) [Example 18, 1-(2′,6-Difluoro-3′-methoxybiphenyl-3-yl)-4-fluoro-1-(pyrimidin-5-yl)-1H-isoindol-3-amine]",3400
4,"COc1c(C)cc(C2(c3cccc(-c4cncnc4)c3)N=C(N)c3c(F)cccc32)cc1C#N (stereo not shown) [Example 54, 5-(3-Amino-4-fluoro-1-(3-(pyrimidin-5-yl)phenyl)-1H-isoindol-1-yl)-2-methoxy-3-methylbenzonitrile]",42
5,"COc1ncc(C2(c3cccc(-c4cncnc4)c3)N=C(N)c3c(F)cccc32)cc1C(F)(F)F (stereo not shown) [Example 49, 4-Fluoro-1-(6-methoxy-5-(trifluoromethyl)pyridin-3-yl)-1-(3-(pyrimidin-5-yl)phenyl)-1 H-isoindol-3-amine]",600
6,"COc1c(C)cc(C2(c3ccnc(-c4cncnc4)c3)N=C(N)c3c(F)cccc32)nc1C (stereo not shown) [Example 36, 4-Fluoro-1-(5-methoxy-4,6-dimethylpyridin-2-yl)-1-(2-(pyrimidin-5-yl)pyridin-4-yl)-1H-isoindol-3-amine]",490
7,"COc1c(C)cc(C2(c3ccnc(-c4cncnc4)c3)N=C(N)c3c(F)cccc32)cc1F (stereo not shown) [Example 34, 4-Fluoro-1-(3-fluoro-4-methoxy-5-methylphenyl)-1-(2-(pyrimidin-5-yl)pyridin-4-yl)-1H-isoindol-3-amine]",81
8,"COc1cccc(-c2cccc(C3(c4ccncc4)N=C(N)c4c(F)cccc43)c2)c1F (stereo not shown) [Example 14, 4-Fluoro-1-(2′-fluoro-3′-methoxybiphenyl-3-yl)-1-(pyridin-4-yl)-1H-isoindol-3-amine]",95
9,"COc1cc(C2(c3cccc(-c4cc(C#N)ccn4)c3)N=C(N)c3c(F)cccc32)ccn1 (stereo not shown) [Example 39, 2-(3-(3-Amino-4-fluoro-1-(2-methoxypyridin-4-yl)-1H-isoindol-1-yl)phenyl)isonicotinonitrile]",1100
10,"COc1cc(C2(c3cccc(-c4cncnc4)c3)N=C(N)c3c(F)cccc32)ccc1F (stereo not shown) [Example 48, 4-Fluoro-1-(4-fluoro-3-methoxyphenyl)-1-(3-(pyrimidin-5-yl)phenyl)-1H-isoindol-3-amine]",350
11,"Cc1cc(C2(c3cc(-c4cncc(C#N)c4)ccc3F)N=C(N)c3c(F)cccc32)ccn1 (stereo not shown) [Example 3, 5-(3-(3-Amino-4-fluoro-1-(2-methylpyridin-4-yl)-1H-isoindol-1-yl)-4-fluorophenyl)nicotinonitrile]",1800
12,"NC1=NC(c2cccc(-c3cnccn3)c2)(c2ccnc(C(F)(F)F)c2)c2cccc(F)c21 (stereo not shown) [Example 30, 4-Fluoro-1-(3-(pyrazin-2-yl)phenyl)-1-(2-(trifluoromethyl)pyridin-4-yl)-1H-isoindol-3-amine]",320
13,"Cc1cc(C2(c3cc(-c4cncnc4)ccc3F)N=C(N)c3c(F)cccc32)ccn1 (stereo not shown) [Example 1, 4-Fluoro-1-(2-fluoro-5-(pyrimidin-5-yl)phenyl)-1-(2-methylpyridin-4-yl)-1H-isoindol-3-amine]",1600
14,"Cc1cc(C2(c3cc(-c4cncc(F)c4)ccc3F)N=C(N)c3c(F)cccc32)ccn1 (stereo not shown) [Example 4, 4-Fluoro-1-(2-fluoro-5-(5-fluoropyridin-3-yl)phenyl)-1-(2-methylpyridin-4-yl)-1H-isoindol-3-amine]",1600
15,"NC1=NC(c2ccnc(-c3cncnc3)c2)(c2ccnc(C(F)F)c2)c2cccc(F)c21 (stereo not shown) [Example 42, 1-(2-(Difluoromethyl)pyridin-4-yl)-4-fluoro-1-(2-(pyrimidin-5-yl)pyridin-4-yl)-1H-isoindol-3-amine]",310
16,"COc1c(C)cc(C2(c3cccc(-c4cncnc4)c3)N=C(N)c3c(F)cccc32)nc1C (stereo not shown) [Example 44, 4-Fluoro-1-(5-methoxy-4,6-dimethylpyridin-2-yl)-1-(3-(pyrimidin-5-yl)phenyl)-1H-isoindol-3-amine]",79
17,"Cc1cc(C2(c3ccnc(-c4cncnc4)c3)N=C(N)c3c(F)cccc32)cc(C(F)F)n1 (stereo not shown) [Example 33, 1-(2-(Difluoromethyl)-6-methylpyridin-4-yl)-4-fluoro-1-(2-(pyrimidin-5-yl)pyridin-4-yl)-1H-isoindol-3-amine]",730

row,SMILES,IC50 [nM]
1,"COc1cc(C2(c3cccc(-c4cnccn4)c3)N=C(N)c3c(F)cccc32)ccn1 (stereo not shown) [Example 29, 4-Fluoro-1-(2-methoxypyridin-4-yl)-1-(3-(pyrazin-2-yl)phenyl)-1H-isoindol-3-amine acetate]",200
2,"NC1=NC(c2ccnc(C(F)(F)F)c2)(c2ccc(O)c(-c3cnccn3)c2)c2cccc(F)c21 (stereo not shown) [Example 50, 4-(3-Amino-4-fluoro-1-(2-(trifluoromethyl)pyridin-4-yl)-1H-isoindol-1-yl)-2-(pyrazin-2-yl)phenol]",420
3,"N#Cc1cncc(-c2cc(C3(c4ccnc(C(F)(F)F)c4)N=C(N)c4c(F)cccc43)ccc2F)c1 (stereo not shown) [Example 25, 5-(5-(3-Amino-4-fluoro-1-(2-(trifluoromethyl)pyridin-4-yl)-1H-isoindol-1-yl)-2-fluorophenyl) nicotinonitrile trifluoroacetate]",370
4,"COc1ccc(C2(c3cccc(-c4cncnc4)c3)N=C(N)c3c(F)cccc32)cc1C#N (stereo not shown) [Example 43, 5-(3-Amino-4-fluoro-1-(3-(pyrimidin-5-yl)phenyl)-1H-isoindol-1-yl)-2-methoxybenzonitrile]",560
5,"Cc1cc(C2(c3cccc(-c4cncnc4)c3)N=C(N)c3c(F)cccc32)cc(C)n1 (stereo not shown) [Example 21, 1-(2,6-Dimethylpyridin-4-yl)-4-fluoro-1-(3-(pyrimidin-5-yl)phenyl)-1H-isoindol-3-amine]",1100
6,"Cc1cc(C2(c3cc(-c4cccnc4)ccc3F)N=C(N)c3c(F)cccc32)ccn1 (stereo not shown) [Example 5, 4-Fluoro-1-(2-fluoro-5-(pyridin-3-yl)phenyl)-1-(2-methylpyridin-4-yl)-1H-isoindol-3-amine]",1700
7,"COc1cc(C2(c3cccc(-c4cncc(C#N)c4)c3)N=C(N)c3c(F)cccc32)ccn1 (stereo not shown) [Example 28, 5-(3-(3-Amino-4-fluoro-1-(2-methoxypyridin-4-yl)-1H-isoindol-1-yl)phenyl)nicotinonitrile acetate]",470
8,"NC1=NC(c2cccc(-c3cncnc3)c2)(c2ccnc(C(F)(F)F)c2)c2cc(Cl)cc(F)c21 (stereo not shown) [Example 55, 6-Chloro-4-fluoro-1-(3-(pyrimidin-5-yl)phenyl)-1-(2-(trifluoromethyl)pyridin-4-yl)-1H-isoindol-3-amine]",150
9,"Cc1cc(C2(c3cccc(-c4cncnc4)c3)N=C(N)c3c(F)cccc32)nc(C)n1 (stereo not shown) [Example 45, 1-(2,6-Dimethylpyrimidin-4-yl)-4-fluoro-1-(3-(pyrimidin-5-yl)phenyl)-1H-isoindol-3-amine]",270
10,"NC1=NC(c2ccnc(-c3cncnc3)c2)(c2ccnc(C3CC3)c2)c2cccc(F)c21 (stereo not shown) [Example 52, 1-(2-Cyclopropylpyridin-4-yl)-4-fluoro-1-(2-(pyrimidin-5-yl)pyridin-4-yl)-1H-isoindol-3-amine]",690
11,"Cc1cc(C2(c3cccc(-c4cncc(C#N)c4)c3)N=C(N)c3c(F)cccc32)cc(C)n1 (stereo not shown) [Example 22, 5-(3-(3-Amino-1-(2,6-dimethylpyridin-4-yl)-4-fluoro-1H-isoindol-1 yl)phenyl)nicotinonitrile]",870
12,"NC1=NC(c2ccncc2)(c2cccc(-c3cncc(F)c3)c2)c2cccc(F)c21 (stereo not shown) [Example 15, 4-Fluoro-1-(3-(5-fluoropyridin-3-yl)phenyl)-1-(pyridin-4-yl)-1H-isoindol-3-amine]",140
13,"NC1=NC(c2ccncc2)(c2ccc(F)c(-c3cncnc3)c2)c2cccc(F)c21 (stereo not shown) [Example 16, 4-Fluoro-1-(4-fluoro-3-(pyrimidin-5-yl)phenyl)-1-(pyridin-4-yl)-1H-isoindol-3-amine]",320
14,"Cc1cc(C2(c3cccc(-c4cncnc4)c3)N=C(N)c3c(F)cc(Cl)cc32)ccn1 (stereo not shown) [Example 56, 6-Chloro-4-fluoro-1-(2-methylpyridin-4-yl)-1-(3-(pyrimidin-5-yl)phenyl)-1H-isoindol-3-amine]",230
15,"CS(=O)(=O)c1cncc(-c2ccc(F)c(C3(c4ccnc(C(F)(F)F)c4)N=C(N)c4c(F)cccc43)c2)c1 (stereo not shown) [Example 8, 4-Fluoro-1-(2-fluoro-5-(5-(methylsulfonyl)pyridin-3-yl)phenyl)-1-(2-(trifluoromethyl)pyridin-4-yl)-1H-isoindol-3-amine]",12000
16,"Cc1cc(C2(c3cccc(-c4cncnc4)c3)N=C(N)c3c(F)cccc32)cc(C(F)F)n1 (stereo not shown) [Example 32, 1-(2-(Difluoromethyl)-6-methylpyridin-4-yl)-4-fluoro-1-(3-(pyrimidin-5-yl)phenyl)-1H-isoindol-3-amine]",90

# Same assay, conditions: stated in the text of the example; read-out: IC50 in the FRET assay
row,SMILES,IC50 [nM]
1,"Cc1cc(C2(c3cc(-c4cncc(S(C)(=O)=O)c4)ccc3F)N=C(N)c3c(F)cccc32)ccn1 (stereo not shown) [Example 2, 4-Fluoro-1-(2-fluoro-5-(5-(methylsulfonyl)pyridin-3-yl)phenyl)-1-(2-methylpyridin-4-yl)-1H-isoindol-3-amine]",27000
